US20240294881A1, “CELL CULTURE SUPPLEMENT FOR PRODUCING STEM CELLS, AND METHOD FOR PRODUCING STEM CELLS” (OPTICELL, INC, priority 2021, published 2024)

Tests used:
Format in all cases: cell-based
[1] = tested on: healthy human adult skin fibroblasts; assay: Spheroid culture of healthy human adult skin fibroblasts, microscope observation; conditions: 96-well round-bottom vessel coated with 0.125% solution; uncoated control grew 2D
Protocol: An aqueous solution of the polypeptide represented by formula (1) (0.125%) (cell culture supplement) was added to a commercial polystyrene-made 96-well round-bottom culture vessel (Nuncion Delta 96U Bottom, Thermo Fisher Scientific) and allowed to stand at 4° C. for 24 hours. The cell culture supplement solution was then removed and the coated cell culture supplement was dried in a dryer at 37° C. for 96 hours to complete the cell culture supplement coating process. Healthy human adult skin fibroblasts (Lonza, normal human dermal fibroblast-adult, referred to as “adult skin fibroblasts” below) were maintained and cultured in a serum-free medium (Fujifilm Wako Pure Chemical Corporation; DMEM/F12 medium, human serum albumin recombinant 0.5 mg/mL, human transferrin recombinant 10 μg/mL, basic-FGF 5 ng/ml, and insulin 2.5 μg/mL). Adult skin fibroblasts floating in 100 μL of the medium were seeded in the 96-well round-bottom culture vessel coated with the cell culture supplement at 2×10^4 cells/well and cultured at 37° C. under 5% CO2 conditions.

[2] = tested on: ES2 cells (human ovarian cancer cells); assay: Three-dimensional spheroid culture of cancer cells, microscope observation; conditions: 6-well flat-bottom vessel coated with 0.125% solution; DMEM + 10% FBS; day 4 to day 15
Protocol: (§1) Method 2 mL of an aqueous solution of the polypeptide represented by formula (1) (0.125%) (cell culture supplement) was added to a commercial polystyrene-made 6-well flat-bottom culture vessel (CellBIND, Corning) and allowed to stand at 4° C. for 24 hours.
(§2) The cell culture supplement solution was then removed and the coated cell culture supplement was dried in a dryer at 37° C. for 96 hours to complete the cell culture supplement coating process. For human cancer cells, common cancer cell lines, A549 cells (human lung cancer cells, ATCC CCL-185, carcinoma), ES2 cells (human ovarian cancer cells, ATCC CRL-1978, clear cell carcinoma), and HOS-143 cells (human osteosarcoma cells, ATCC CRL-8303, osteosarcoma), were used. Each type of cancer cells was seeded in the culture vessel at 2×10^5 cells/well/[…] and cultured at 37° C. under 5% CO2. The medium for use was a DMEM medium supplemented with 10% FBS and penicillin/streptomycin. For a control, cancer cells were seeded in the same type of culture vessel that was not coated with the cell culture supplement at […]. Observation was performed with a microscope on day 4 and day 15 after the start of culture to capture images of spheroid formation (FIG. 18).

[3] = tested on: A549 cells (human lung cancer cells); assay: as above; conditions: 6-well flat-bottom vessel coated with 0.125% solution; DMEM + 10% FBS; day 4 to day 15
Protocol: as §1, §2

[4] = tested on: HOS-143 cells (human osteosarcoma cells); assay: as above; conditions: 6-well flat-bottom vessel coated with 0.125% solution; DMEM + 10% FBS; day 4 to day 15
Protocol: as §1, §2

[5] = tested on: healthy human neonatal fibroblasts; assay: Spheroid culture of healthy human neonatal fibroblasts in coated 96-well round-bottom vessel, microscope observation; conditions: PS 96-well round-bottom vessel coated with 0.125% solution; 4×10^4 cells/well
Protocol: (§3) To observe the spheroid formation and stem cell induction in healthy human neonatal fibroblasts over time, culture was performed by using a 96-well round-bottom culture vessel. An aqueous solution of the polypeptide represented by formula (1) (0.125%) (cell culture supplement) was added to a commercial polystyrene-made 96-well round-bottom culture vessel (Nunclon Delta 96U Bottom, Thermo Fisher Scientific) at 100 μL/well and allowed to stand at 4° C. for 24 hours. Thereafter, the excess cell culture supplement was removed, and the remaining solution was dried in a dryer at 37° C. for 96 hours to complete coating treatment with the cell culture supplement. Fibroblasts were maintained and cultured in a serum-free medium (Promo Cell; fibroblast basal medium, basic-FGF 5 ng/ml and insulin 2.5 μg/mL). The fibroblasts floating in the medium were seeded in the culture vessel coated with the cell culture supplement at 4×10^4 cells/well/100 μL and cultured at 37° C. under 5% CO2 conditions.

[6] = tested on: healthy human neonatal fibroblasts; assay: Real-time PCR of undifferentiated stem cell and three germ layer marker genes in neonatal fibroblast spheroids (96-well round-bottom); conditions: day 20 of 3D spheroid culture, coated 96-well round-bottom; 2D control without supplement day 0 = 1.0; ΔΔCt
Protocol: as §3
To investigate the expression mechanism of the undifferentiated stem cell marker genes found in Example 1 over time, real-time PCR analysis was performed by using the following three transcription factors: SOX2 (sex-determining region Y-box 2), OCT4 (octamer binding transcription factor 4), and NANOG (homeodomain transcription factor), and a TaqMan gene expression assay probe (B-actin) as an endogenous control gene. In the expression analysis, relative quantification was performed according to the ΔΔCt method (Delta Delta Ct method) (FIG. 8).
To determine whether stem cells induced from fibroblasts have a differentiation-inducing ability, analysis was conducted on the expression of genes associated with the three germ layers that indicate the early stages of differentiation. Fibroblasts were cultured in the same type of a 96-well culture vessel treated with the cell culture supplement as above according to the same method. Real-time PCR analysis was performed by using the following expression detection probes for the genes associated with differentiation into the three germ layers: SOX17 (sex-determining region Y-box 17; endoderm), HAND1 (Heart-and neural crest derivatives-expressed protein-1; mesoderm), and MAP2 (microtubule associated protein 2: ectoderm), and a TaqMan gene expression assay probe (ß-actin) as the endogenous control gene. In the expression analysis, relative quantification was performed according to the ΔΔCt method (Delta Delta Ct method) (FIG. 9).

(Pro-Hyp-Gly)n [cell culture supplement]
spheroid formation [1]: formed spheroids | spheroid formation [2]: form spheroids | spheroid formation [3]: form spheroids | spheroid formation [4]: form spheroids | spheroid formation [5]: formed a single spheroid | HAND1 (mesoderm) gene expression level (increase vs control) [6]: 4.6 fold | MAP2 (ectoderm) gene expression level (increase vs control) [6]: 24.2 fold | NANOG gene expression level (increase vs control) [6]: 35.4 fold | OCT4 gene expression level (increase vs control) [6]: 30.1 fold | SOX2 gene expression level (increase vs control) [6]: 144.0 fold | SOX17 (endoderm) gene expression level (increase vs control) [6]: 359.6 fold
